Assay results: patent publication US11622970B2, “BCL-2 inhibitors and their use as pharmaceuticals” (PRELUDE THERAPEUTICS INCORPORATED, priority 2020, dated 2023)

The compounds below were run against BCL-2 recombinant protein (Homo sapiens, UniProt P10415) (assay: Cell free Bcl-2:Bak affinity assay (Bcl-2 Bak), HTRF competition of FAM-Bak peptide). Details: 1 μM compound, 4 nM BCL-2 recombinant protein, 100 nM FAM-Bak, read-out: potency (% inhibition at 1 μM).
Format: binding
Procedure: Biological Assays: Cell Free Bcl-2:Bak Affinity Assay (Bcl-2 Bak)
The assay is based on the competition of fluorescently labeled peptide binding to BCL-2 and the binding is monitored by HTRF signals between anti-GST-Tb and FAM-peptide using GST-Tag BCL proteins. Testing compounds were dissolved in DMSO at 10 mM and tested in 10-concentration IC50 mode. The compounds of interest in DMSO were added in 3-fold serial dilution to each well containing 4 nM of BCL-2 recombinant protein, 20 mM K Phosphate, pH 7.5, 50 mM NaCl, 1 mM EDTA, 0.005% Triton X-100, by using acoustic technology (Labcyte echo 550), After 10 minutes incubation at room temperature, 100 nM of FAM-Bak was added and incubated for another 10 minutes before addition of Anti-GST-Tb. The plate was then sealed and further incubated at room temperature for 60 minutes in the dark before reading. Percentage of inhibition was calculated by % inhibition=100×(FDMSO−F)/(FDMSO−FPC), in which FDMSO is DMSO control and FPC is a positive control. IC50 values were determined from dose-response curve by fitting the percent inhibition against compound concentration using GraphPad Prism software.

Sequence of BCL-2 recombinant protein (P10415 whole entry): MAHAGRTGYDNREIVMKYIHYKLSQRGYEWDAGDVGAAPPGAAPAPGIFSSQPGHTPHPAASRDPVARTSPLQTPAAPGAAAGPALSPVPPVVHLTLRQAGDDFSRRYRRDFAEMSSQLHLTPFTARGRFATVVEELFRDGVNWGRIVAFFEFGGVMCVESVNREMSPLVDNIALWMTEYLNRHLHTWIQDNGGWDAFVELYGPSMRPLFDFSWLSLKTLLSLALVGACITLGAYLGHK

Row | Structure (SMILES) | inhibition at 1 µM [%]
1 | Cn1cc(-c2nc(C(=O)NS(=O)(=O)c3ccc(N4CCN(CC5=C(c6ccc(Cl)cc6)CC(C)(C)CC5)CC4)cc3)ccc2F)cn1 [Example 45, N-[4-[4-[[2-(4-chlorophenyl)-4,4-dimethylcyclohexen-1-yl]methyl]piperazin-1-yl]phenyl]sulfonyl-5-fluoro-6-(1-methyl-1H-pyrazol-4-yl)pyridine-2-carboxamide] | 50 to 90
2 | CC1(C)CCC(CN2CCN(c3ccc(S(=O)(=O)NC(=O)c4ccc(F)c(-n5ccnc5)n4)cc3)CC2)=C(c2ccc(Cl)cc2)C1 [Example 46, N-[4-[4-[[2-(4-chlorophenyl)-4,4-dimethylcyclohexen-1-yl]methyl]piperazin-1-yl]phenyl]sulfonyl-5-fluoro-6-(1H-imidazol-1-yl)pyridine-2-carboxamide] | 50 to 90
3 | CC1(C)CCC(CN2CCN(c3ccc(S(=O)(=O)NC(=O)c4ccc(F)c(-c5cnc6c(c5)CC(=O)N6)n4)cc3)CC2)=C(c2ccc(Cl)cc2)C1 [Example 47, N-[4-[4-[[2-(4-chlorophenyl)-4,4-dimethylcyclohexen-1-yl]methyl]piperazin-1-yl]phenyl]sulfonyl-5-fluoro-6-(2-oxo-2,3-dihydro-1H-pyrrolo[2,3-b]pyridin-5-yl)pyridine-2-carboxamide] | 50 to 90
4 | CC1(C)CCC(CN2CCN(c3ccc(S(=O)(=O)NC(=O)c4ccc(F)c(-c5ccc6[nH]ncc6c5)n4)cc3)CC2)=C(c2ccc(Cl)cc2)C1 [Example 48, N-[4-[4-[[2-(4-chlorophenyl)-4,4-dimethylcyclohexen-1-yl]methyl]piperazin-1-yl]phenyl]sulfonyl-5-fluoro-6-(1H-indazol-5-yl)pyridine-2-carboxamide] | 50 to 90
5 | CC1(C)CCC(CN2CCN(c3ccc(S(=O)(=O)NC(=O)c4ccc(F)c(-c5ccc6[nH]nnc6c5)n4)cc3)CC2)=C(c2ccc(Cl)cc2)C1 [Example 49, 6-(1H-benzo[d][1,2,3]triazol-5-yl)-N-[4-[4-[[2-(4-chlorophenyl)-4,4-dimethylcyclohexen-1-yl]methyl]piperazin-1-yl]phenyl]sulfonyl-5-fluoro pyridine-2-carboxamide] | > 90
6 | Cn1ncc2cc(-c3nc(C(=O)NS(=O)(=O)c4ccc(N5CCN(CC6=C(c7ccc(Cl)cc7)CC(C)(C)CC6)CC5)cc4)ccc3F)ccc21 [Example 50, N-[4-[4-[[2-(4-chlorophenyl)-4,4-dimethylcyclohexen-1-yl]methyl]piperazin-1-yl]phenyl]sulfonyl-5-fluoro-6-(1-methyl-1H-indazol-5-yl)pyridine-2-carboxamide] | 50 to 90
7 | CC1(C)CCC(CN2CCN(c3ccc(S(=O)(=O)NC(=O)c4ccc([N+](=O)[O-])c(OCc5ccccc5)n4)cc3)CC2)=C(c2ccc(Cl)cc2)C1 [Example 51, 6-(benzyloxy)-N-[4-[4-[[2-(4-chlorophenyl)-4,4-dimethylcyclohexen-1-yl]methyl]piperazin-1-yl]phenyl]sulfonyl-5-nitropyridine-2-carboxamide] | 50 to 90
8 | CC1(C)CCC(CN2CCN(c3ccc(S(=O)(=O)NC(=O)c4ccc(COc5ccccc5)c([N+](=O)[O-])c4)cc3)CC2)=C(c2ccc(Cl)cc2)C1 [Example 52, N-[4-[4-[[2-(4-chlorophenyl)-4,4-dimethylcyclohexen-1-yl]methyl]piperazin-1-yl]phenyl]sulfonyl-3-nitro-4-(phenoxymethyl)benzamide] | 50 to 90
9 | CC1(C)CCC(CN2CCN(c3ccc(S(=O)(=O)NC(=O)c4ccc(F)c(OCc5ccccc5)c4)cc3)CC2)=C(c2ccc(Cl)cc2)C1 [Example 53, 3-(benzyloxy)-N-[4-[4-[[2-(4-chlorophenyl)-4,4-dimethylcyclohexen-1-yl]methyl]piperazin-1-yl]phenyl]sulfonyl-4-fluorobenzamide] | 50 to 90
